Measured values published in patent US9109048B2, “Inhibition of tumor growth” (priority 1998, dated 2015).
Like-named read-outs stand apart in the source and are kept apart here. Square brackets hold non-standard residues; d marks the D form. Bip = N[C@@H](Cc1ccc(-c2ccccc2)cc1)C(=O)O

What was measured:
[1] = tested on: human promyelotic leukemia cell line HL 60; assay: Cytotoxicity on HL 60 cells, MTT; assay type: cell-based
Experimental: HL 60 cells, 1×10^4 were incubated with peptides 50, 30, 20, 10, 5, 1 μg, 1000-20 μg/ml in 2 hours and coloured with MTT;

[2] = tested on: Escherichia coli ATCC 25922; assay: MIC (minimum inhibitory concentration) test, microdilution; assay type: cell-based
Summary of the method: (§1)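 Strains are stored at −70° C, grown to mid-logarithmic phase in 2% Bacto Peptone water, then exposed to peptides in 1% Bacto Peptone water by standard microdilution with 2×10^6 CFU/ml. Each assay runs in triplicate.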

[3] = tested on: Staphylococcus aureus ATCC 25923; assay: as above; assay type: cell-based
Summary of the method: as §1

Meth A fibrosarcoma = assay: Tumor regression, murine Meth A fibrosarcoma; assay type: in vivo, mice
Experimental: Specific pathogen-free CB6F1 (Balb/c×C57 BL/6) female mice of about 8 weeks of age were obtained from Charles River (Germany). The mice were kept on standard laboratory chow and water. Tumor bearing mice were serologically screened for viral (LDH, CMV) and mycoplasmic infection and in all cases tested negative.
After a single inoculation of 5×10^7 viable Meth A cells, different LF peptides were injected intratumorally (LFB-14-31, LFB 17-31 Pmc, 500 μg in a 50 μl dose; LFB 17-31, 1000 μg in a 50 μl dose), on day 7 and day 10. LFB 14-31 was also injected intraperitoneally (PBI), 500 μg/ml. Saline only was injected in the control mice (50 μl) (K1,K2,K3). The tumor diameter (mean of transversal and longitudinal) were measured with an electronic calipper.

C26 colon carcinoma = assay: Murine C26 colon carcinoma model; assay type: in vivo, Balb/c mice
Experimental: The antitumoral activity of the peptide, Ad-LFB 14-31 A2,3,6,10,17,F7,R4,K11,L14-NH2, (NDDO1) was tested in a murine C26 colon carcinoma model established in syngenic Balb/c mice. C26 cells (5×10^6 cells in 50 μl) cells were inoculated subcutaneously on the abdomen of the mice (3 animals) and grown into proper size (20-30 mm^2) before treatment start. At day 7 the tumors were treated intra-tumorally with 0.5 mg/50 μl peptide once a day for three consecutive days and the progression was followed. […] In this mouse C26 tumor cells (5×10^6 cells in 50 μl) were re-inoculated subcutaneously three weeks after peptide treatment.

Meth A tumor cells = assay: Reinoculation of Meth A cells after successful treatment; assay type: in vivo, mice; conditions: reinoculation 1 month after successful treatment, no further treatment
[4] = tested on: Meth A cells (murine sarcoma cell line); assay: Cytotoxicity on Meth A cells, MTT method
Experimental: Peptide solutions (0.1 ml) were added and the plates incubated at 37° C. for 30 minutes, 4 hours or 24 hours. The cytotoxicity was measured using the MTT method (Mosmann et al., J. Immunol. (1986) 136, 2348-2357).
Cells in the growth phase were harvested and washed in fresh medium and injected subcutaneously into the abdominal region of the mice.
The cytotoxic effect of the peptides on different murine and human tumor cells were measured using the MTT method (Mosmann et al., J. Immunol. (1986) 136, 2348-2357).
MTT is a soluble tetrazolium salt yielding a yellow solution when prepared in media or salt solutions lacking phenol red. Dissolved MTT is converted to an insoluble purple formazan by cleavage of the tetrazolium ring by dehydrogenase enzymes. This water insoluble formazan can be solubilized using isopropanol or other solvents and the dissolved material is measured spectrophotometrically. The absorbance was measured as a function of concentration of converted dye.
Cells were maintained in […] medium containing 10% FBS, 1% L-glutamine and 0.1% penicillin and streptomycin. Cells to be used in the assay were grown to confluency, trypsinated and split to single cell suspension, counted and centrifuged at 1500 rpm for 10 min. […][…] of cell suspension was transferred to each well on a 96-well microtiter plate. The cells were stimulated by adding […] of various concentrations of peptides diluted with assay medium to each well. The final concentrations of peptide were for example: 5, 10, 20, 40, 60, 80, 100, and 200 mg/ml. […] As a negative control only medium was added to the cells, and as a positive control (100% killing) 1% triton X-100 was added. Following an incubation period of 4 h., 20 ml MTT dissolved in PBS at a concentration of 5 mg/ml was added to each well, and the plate was incubated further for 2 h. 130 ml of the supernatant were then removed and […] acid alcohol (0.04-0.1 N HCl in isopropanol) added to each well to dissolve the dark blue crystals. The plate was placed on a shaker for 1 h and read spectrophotometrically at 590 nm in a microtiterplate reader using the Softmaxâ program.

[5] = tested on: A20 B-cell lymphoma tumor; assay: Re-inoculation of A20 cells after successful peptide treatment; assay type: in vivo, Balb/c mice; conditions: no further administration of peptides
From the text: b) Mice in which a A20 B-cell lymphoblast tumor had successfully been eradicated as described above were re-inoculated with 5×10^6 cells of A20 B-cell lymphoma tumor. Untreated mice served as a negative control. No further administration of peptides or any other anti-tumor agents took place.

[6] = tested on: A20 B-cell lymphoblastoma; assay: Adoptive transfer of spleen cells from cured mice; assay type: in vivo, Balb/c mice; conditions: donors cured with the peptide; versus naive donors
Experimental: Syngenic Balb/c mice were selected as a model system to investigate the long-term anti-tumor immunity conferred by an initial treatment with a lytic peptide (H2N-WKKWdipKKWK-COOH—Mod 39 (SEQ ID NO: 42)) against A20 B-cell lymphoblastoma. Tumour cells (5×10^6) were inoculated subcutaneously on the abdomen of the mice and grown into proper size (20-30 mm^2) before treatment start. The mice were treated intra-tumorally with 0.5 mg/50 μl peptide once a day for three consecutive days and the progression was followed. Mice that were successfully treated were selected as donors (treated donor) for adoptive transfer of spleen cells, 3 weeks after tumor eradication.
Day 1—Naive acceptor mice were subjected to a Total Body Irradiation (TBI) of 500 cGy in preparation for receiving adoptive transfer of immune cells from spleen donors.
Day 2—Single-cell suspensions of spleenocytes depleted of red blood cells from treated donor mice and naïve mice were prepared as previously described (Ward, B. A. et al., J. Immunology Aughust 1988, vol 141 p 1047), except that sterile H2O was used instead of ammonium chloride to eliminate red blood cells.
Donor spleen cells (approximately 40 million) were injected i.v. into the tail vein of acceptor mice according to the methods described in Bogen B. et al., Eur J Immunology, May 1983, vol 13(5), pages 353-359. […]

[7] = assay type: physicochemical
From the text: Peptide W3714, with three additional tryptophan residues (a total of five tryptophan residues in the peptide), has decreased activity. […] This has been physically observed during MIC testing procedures when the peptide tended to precipitate at high concentrations.

[8] = injected intratumorally on day 7 and day 10
[9] = Table 1, synthetic lactoferricins

Question: For `CSCC[C@H](NC(=O)[C@H](CCCNC(=N)N)NC(=O)[C@H](Cc1c[nH]c2ccccc12)NC(=O)[C@H](CCC(N)=O)NC(=O)[C@H](Cc1c[nH]c2ccccc12)NC(=O)[C@H](CCCNC(=N)N)NC(=O)[C@H](CCCNC(=N)N)NC(=O)[C@H](CSCNC(C)=O)NC(=O)[C@H](CCCCN)NC(=O)[C@H](Cc1ccccc1)NC(=O)[C@H](Cc1c[nH]c2ccccc12)NC(=O)[C@H](CCC(=O)O)NC(=O)[C@@H]1CCCN1)C(=O)N[C@@H](CCCCN)C(=O)N[C@@H](CCCCN)C(=O)N[C@@H](CC(C)C)C(=O)NCC(=O)N[C@@H](C)C(=O)O` [LFB 14-31], which “cytotoxic effect on human HL 60 cells” value [1] is on record?
Answer: The value was “no cytotoxic effect”.

Question: And the “Minimum inhibitory concentration (MIC) E. coli ATCC 25922” value ([2]; Table 1, value in parentheses)?
Answer: Its value is 28 µM.

Question: What about the “Minimum inhibitory concentration (MIC) S. aureus ATCC 25923” value ([3]; Table 1, value in parentheses) of the same molecule?
Answer: Its value is 80 µM.

Question: And the “effect on Meth A tumors” value (Meth A fibrosarcoma; [8])?
Answer: Its value is “induced regression of the Meth A tumors”.

Question: What about the “effect on Meth A tumors” value (Meth A fibrosarcoma; treated intraperitoneally) of the same molecule?
Answer: Its value is “tumors were also eradicated”.

Question: What does the source list for `CSCC[C@H](NC(=O)[C@H](CCCNC(=N)N)NC(=O)[C@H](Cc1c[nH]c2ccccc12)NC(=O)[C@H](CCC(N)=O)NC(=O)[C@H](Cc1c[nH]c2ccccc12)NC(=O)[C@H](CCCNC(=N)N)NC(=O)[C@H](CCCNC(=N)N)NC(=O)[C@H](CSCNC(C)=O)NC(=O)[C@H](CCCCN)NC(=O)[C@@H](N)Cc1ccccc1)C(=O)N[C@@H](CCCCN)C(=O)N[C@@H](CCCCN)C(=O)N[C@@H](CC(C)C)C(=O)NCC(=O)N[C@@H](C)C(=O)O` [LFB 17-31, H2N-Phe-Lys-Cys-Arg-Arg-Trp-Gln-Trp-Arg-Met-Lys-Lys-Leu-Gly-Ala-COOH]?
Answer: cytotoxic effect on human HL 60 cells ([1]; FIG. 7, concentrations tested): no cytotoxic effect; Minimum inhibitory concentration (MIC) E. coli ATCC 25922 ([2]; Table 1, value in parentheses): 20 µM; Minimum inhibitory concentration (MIC) S. aureus ATCC 25923 ([3]; Table 1, value in parentheses): 50 µM; effect on Meth A tumors (Meth A fibrosarcoma; [8]): induced regression of the Meth A tumors

Question: For `CC[C@H](C)[C@H](NC(=O)[C@H](CO)NC(=O)[C@@H]1CCCN1C(=O)[C@H](C)NC(=O)CNC(=O)[C@H](CC(C)C)NC(=O)[C@H](CCCCN)NC(=O)[C@H](CCCCN)NC(=O)[C@H](CCSC)NC(=O)[C@H](CCCNC(=N)N)NC(=O)[C@H](Cc1c[nH]c2ccccc12)NC(=O)[C@H](CCC(N)=O)NC(=O)[C@H](Cc1c[nH]c2ccccc12)NC(=O)[C@H](CCCNC(=N)N)NC(=O)[C@H](CCCNC(=N)N)NC(=O)[C@H](CSCNC(C)=O)NC(=O)[C@H](CCCCN)NC(=O)[C@@H](N)Cc1ccccc1)C(=O)N[C@H](C(=O)N[C@@H](CSCNC(C)=O)C(=O)N[C@H](C(=O)N[C@@H](CCCNC(=N)N)C(=O)N[C@@H](CCCNC(=N)N)C(=O)N[C@@H](C)C(=O)N[C@@H](Cc1ccccc1)C(=O)O)C(C)C)[C@@H](C)O` [LFB (17-41), reference compound], which “cytotoxic effect on human HL 60 cells” value ([1]; FIG. 7, concentrations tested) is on record?
Answer: Its value is “weak concentration dependant cytotoxic effect”.

Question: And the “Minimum inhibitory concentration (MIC) E. coli ATCC 25922” value [2, 9]?
Answer: The value was 30 µg/mL.

Question: What about the “Minimum inhibitory concentration (MIC) S. aureus ATCC 25923” value [3, 9] of the same molecule?
Answer: Its value is 30 µg/mL.

Question: With “Ad-LFB 14-31 A2,3,6,10,17,F7,R4,K11,L14-NH2 [NDDO1]” as the molecule, how does the “primary effect on C26 colon carcinoma” value (C26 colon carcinoma; 3 animals, 0.5 mg/50 μl intra-tumorally once a day for three days) read?
Answer: Its value is “In one mouse full tumor regression was obtained”.

Question: What about the “effect of re-inoculating C26 cells” value (C26 colon carcinoma; re-inoculated three weeks after peptide treatment, no further treatment) of the same molecule?
Answer: The value was “A regression of the tumor after an initial growth was obtained without any further treatment”.

Question: For “H2N-FKCRRWQWRMKKLGAPSITCVRRAF-COOH (H-FKCRRWQWRMKKLGAPSITCVRRAF-OH; ends and bridges not checked) [Cyclic LFB, enzymatically cleaved fragment of bovine lactoferrin, from Morinaga, reference compound]”, which “tumor establishment after reinoculation of Meth A cells” value (Meth A tumor cells) is on record?
Answer: Its value is “some storm of adaptive immunity is shown”.

Question: What about the “concentration at which Meth A cells were effectively killed” value ([4]; Meth A cells 1×10^4/ml, 4 h incubation (FIG. 2)) of the same molecule?
Answer: The value was “higher than 0.8 mg/ml”.

Question: What about the “Meth A cells killed” value ([4]; at concentrations higher than 0.8 mg/ml) of the same molecule?
Answer: Its value is “more than 99%”.

Question: What about the “tumor growth after re-inoculation of A20 cells” value [5] of the same molecule?
Answer: Its value is “no further growth occurred”.

Question: For “H2N-KAAKKAbipKAAKAbipKKAA-COOH (H-KAAKKA[Bip]KAAKA[Bip]KKAA-OH; SMILES C[C@H](NC(=O)[C@H](C)NC(=O)[C@H](CCCCN)NC(=O)[C@H](CCCCN)NC(=O)[C@H](Cc1ccc(-c2ccccc2)cc1)NC(=O)[C@H](C)NC(=O)[C@H](CCCCN)NC(=O)[C@H](C)NC(=O)[C@H](C)NC(=O)[C@H](CCCCN)NC(=O)[C@H](Cc1ccc(-c2ccccc2)cc1)NC(=O)[C@H](C)NC(=O)[C@H](CCCCN)NC(=O)[C@H](CCCCN)NC(=O)[C@H](C)NC(=O)[C@H](C)NC(=O)[C@@H](N)CCCCN)C(=O)O) [Peptide C12]”, which “time until the re-inoculated A20 tumor completely disappeared” value [5] is on record?
Answer: Its value is 6 days.

Question: Which “time until the re-inoculated A20 tumor completely disappeared” value [5] does the source give for H2N-WKKWdipKKWK-COOH [L-Mod 39] here?
Answer: The value was 10 days.

Question: Which “rejection of implanted A20 tumors in acceptors of spleen cells from cured mice” value [6] does the source give for H2N-WKKWdipKKWK-COOH [Model 39] here?
Answer: The value was “able to reject implanted tumors”.

Question: With “H-FKWRRWWWRMKKLWA-OH [LFBW3,7,14, H2N-Phe-Lys-Trp-Arg-Arg-Trp-Trp-Trp-Arg-Met-Lys-Lys-Leu-Trp-Ala-COOH]” as the molecule, how does the “solubility in aqueous solutions” value [7] read?
Answer: The value was “less soluble in aquous solutions”.
